Patent US7196119B2, “Development of new selective estrogen receptor modulators” (The Regents of the University of California, priority 2003, dated 2007)
Entries after “also recorded” stand apart in the source; their conditions may differ. Like-named read-outs stand apart in the source and are kept apart here. One block for each compound: values may come before it.

What was measured:
[1] = tested on: GABAB receptor-mediated outward current in hypothalamic arcuate neurons (membrane associated estrogen receptor); experiment: Whole-cell patch voltage clamp: attenuation of the baclofen-induced GABAB response (GIRK outward current) in hypothalamic slices; format: cell-based, guinea pig
uteri = experiment: Uterotropic action (uterine size/weight) in ovariectomized mice; format: in vivo, C57BL/6 mice
Procedure: Wild-type C57BL/6 mice in these studies were obtained from Jackson laboratories. All animals were maintained under controlled temperature (25° C.) and photoperiod conditions (14-h light, 10-h dark; lights on between 0700 and 2100) with food and water ad libitum. Adult mice were ovariectomized under isoflurane anesthesia, and allowed to recover for 1 week. […] The uteri were collected, weighed and fixed in 4% paraformaldehyde for later histological analysis (data not shown).

full length (ER)β = biological target: T1, full length (ER)β (Homo sapiens, UniProt Q92731); experiment: Estrogen receptor binding assay (spin column, [3H]estradiol competition)
T1 construct: to full length (ER)α or (ER)β*; purchased Pan Vera Corp, Madison, Wis., USA
T1 sequence (Q92731 whole entry): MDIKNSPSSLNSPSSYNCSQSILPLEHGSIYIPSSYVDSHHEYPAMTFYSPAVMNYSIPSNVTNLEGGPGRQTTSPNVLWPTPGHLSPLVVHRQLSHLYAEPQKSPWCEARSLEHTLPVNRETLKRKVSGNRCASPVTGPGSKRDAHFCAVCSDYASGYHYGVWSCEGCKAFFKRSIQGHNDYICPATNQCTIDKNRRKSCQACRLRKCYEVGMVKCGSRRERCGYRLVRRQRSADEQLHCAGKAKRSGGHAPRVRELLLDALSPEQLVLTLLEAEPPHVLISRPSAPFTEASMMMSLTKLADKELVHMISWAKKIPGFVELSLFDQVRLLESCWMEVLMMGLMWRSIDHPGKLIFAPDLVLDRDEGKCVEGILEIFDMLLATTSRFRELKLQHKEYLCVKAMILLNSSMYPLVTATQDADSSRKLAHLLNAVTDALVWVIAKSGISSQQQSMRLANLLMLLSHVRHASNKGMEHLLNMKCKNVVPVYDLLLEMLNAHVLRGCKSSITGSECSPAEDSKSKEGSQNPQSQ

full length (ER)α = biological target: T2, full length (ER)α (Homo sapiens, UniProt P03372); experiment: as above
T2 construct: purchased Pan Vera Corp, Madison, Wis., USA
T2 sequence (P03372 1-595): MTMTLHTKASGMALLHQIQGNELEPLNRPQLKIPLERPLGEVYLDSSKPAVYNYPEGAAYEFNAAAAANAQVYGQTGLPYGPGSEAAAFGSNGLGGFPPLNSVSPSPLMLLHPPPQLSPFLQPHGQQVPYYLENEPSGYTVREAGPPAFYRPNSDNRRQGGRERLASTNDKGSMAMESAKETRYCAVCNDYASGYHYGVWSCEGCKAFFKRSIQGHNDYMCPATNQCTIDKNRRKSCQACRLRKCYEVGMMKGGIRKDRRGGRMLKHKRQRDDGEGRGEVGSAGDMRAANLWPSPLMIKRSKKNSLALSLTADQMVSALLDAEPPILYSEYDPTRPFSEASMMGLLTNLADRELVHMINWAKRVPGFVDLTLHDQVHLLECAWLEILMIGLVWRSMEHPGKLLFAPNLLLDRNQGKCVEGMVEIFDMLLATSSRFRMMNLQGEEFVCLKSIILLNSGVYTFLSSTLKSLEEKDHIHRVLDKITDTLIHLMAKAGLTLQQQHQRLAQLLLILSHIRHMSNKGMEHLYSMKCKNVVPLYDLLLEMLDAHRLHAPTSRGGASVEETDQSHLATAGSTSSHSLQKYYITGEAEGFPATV

Compound: C[C@]12CC[C@@H]3c4ccc(O)cc4C[C@@H](CCCCCCCCC[S+]([O-])CCCC(F)(F)C(F)(F)F)[C@H]3[C@@H]1CC[C@@H]2O (stereo partly shown) [ICI 182, 780]
- effect on the baclofen (GABAB) response ([1]; 1 μM, applied alone): no effect
- effect on the 17β-estradiol-induced suppression of the GABAB response ([1]; 1 μM, with 17β-estradiol): blocked

Compound: O=C(c1ccc(OCCN2CCCCC2)cc1)c1c(-c2ccc(O)cc2)sc2cc(O)ccc12 [Raloxifene, raloxifene]
- effect on the baclofen (GABAB) response [1]: completely mimicked the actions of 17β-estradiol

Compound: C[C@]12CC[C@@H]3c4ccc(O)cc4CC[C@H]3[C@@H]1CC[C@@H]2O [17β-estradiol]
- R2/R1 (second over first baclofen response) [1]: 58.6±3.4%
- decrease in the response to a second application of baclofen [1]: 41%
- effect on the baclofen (GABAB) response [1]: no effect

Compound: CC/C(=C(\c1ccccc1)c1ccc(OCCN(C)C)cc1)c1ccccc1 [Tamoxifen, tamoxifen]
- R2/R1 (second over first baclofen response) [1]: 60.4±6.6%
- effect on the 17β-estradiol-induced suppression of the GABAB response [1]: did not attenuate the effects of 17β-estradiol
- effect on the baclofen (GABAB) response [1]: inactive

Compound: Cl.Cl.O=S(=O)(NCCNC/C=C/c1ccc(Br)cc1)c1cccc2cnccc12 [Compound H89]
- effect on the 17β-estradiol-induced suppression of the GABAB response ([1]; 10 μM, with 17β-estradiol): blocked

Compound: Nc1ncnc2c1ncn2[C@@H]1O[C@@H]2COP(O)(=S)O[C@H]2[C@H]1O (stereo partly shown) [Rp-cAMP]
- effect on the 17β-estradiol-induced suppression of the GABAB response ([1]; 200 μM, dialysis, with 17β-estradiol): abolished

Compound: COc1cccc(-c2cc(=O)c3ccccc3o2)c1N [PD98059]
- effect on the 17β-estradiol-induced suppression of the GABAB response ([1]; 10 μM, with 17β-estradiol): did not affect 17β-estradiol inhibition of baclofen responses
- R2/R1 (second over first baclofen response) ([1]; PD98059 (10 μM, in the pipette) + 17β-estradiol, baclofen 5 μM): 66.1±11.8%

Compound: COc1ccc2c(c1)CC[C@@H]1[C@@H]2CC[C@]2(C)[C@@H](NCCCCCCN3C(=O)C=CC3=O)CC[C@@H]12 [Compound U73122]
- effect on the 17β-estradiol-induced suppression of the GABAB response ([1]; 10 μM, with 17β-estradiol): blocked

Compound: C[C@]12CC[C@@H]3c4ccc(OC(=O)c5ccccc5)cc4CC[C@H]3[C@@H]1CC[C@@H]2O [estradiol benzoate]
- uterine size (uteri; 1 μg daily for 2 days, compared with oil vehicle): noticeable increase in uterine size

Compound: CC(=O)c1c(O)c(C)c(O)c(Cc2c(O)c3c(c(C(=O)/C=C/c4ccccc4)c2O)OC(C)(C)C=C3)c1O [rottlerin]
- effect on the 17β-estradiol-induced suppression of the GABAB response [1]: completely blocked

Compound: Ac-LGLNLKEYNLV-OH [Gq peptide]
- effect on the 17β-estradiol-induced suppression of the GABAB response [1]: significantly blocked

Compound: Cn1c2ccccc2c2c3c(c4c5ccccc5n(CCC#N)c4c21)CNC3=O [Gö6976]
- effect on the 17β-estradiol-induced suppression of the GABAB response ([1]; test concentration not given, with 17β-estradiol): without effect

Compound: CN(C)CCCn1cc(C2=C(c3c[nH]c4ccccc34)C(=O)NC2=O)c2ccccc21.Cl [BIS, bisindolylmaleimide I hydrochloride]
- effect on the 17β-estradiol-induced suppression of the GABAB response [1]: nearly eliminated the effects of 17β-estradiol

Compound: N#CC(=C(/N)Sc1ccccc1N)/C(C#N)=C(/N)Sc1ccccc1N [Compound U0126]
- effect on the 17β-estradiol-induced suppression of the GABAB response ([1]; 5 μM, with 17β-estradiol): did not affect 17β-estradiol inhibition of baclofen responses

Compound: C[C@]12CC[C@@H]3c4ccc(O)cc4CC[C@H]3[C@@H]1CC[C@H]2O [17α-estradiol]
- effect on the baclofen (GABAB) response [1]: no effect

Compound: COc1ccc2c(c1)CC[C@@H]1[C@@H]2CC[C@]2(C)[C@@H](NCCCCCCN3C(=O)CCC3=O)CC[C@@H]12 [Compound U73343]
- effect on the 17β-estradiol-induced suppression of the GABAB response ([1]; 10 μM, with 17β-estradiol): no effect

Compound: 4-hydroxytamoxifen
- block of the baclofen response [1]: 25%
- Relative binding affinity (ER)β (full length (ER)β): 43%
- Relative binding affinity (ER)α (full length (ER)α): 36%

- Relative binding affinity (ER)α (full length (ER)α; percentage of the potency of 17β-estradiol (IC50 estradiol / IC50 ligand x 100)): 4.3 × 10^−6%
Compound: CC/C(=C(\C(=O)Nc1ccc(OCCN(C)C)cc1)c1ccc(O)cc1)c1ccccc1 [Compound 8, (E,Z)-2-(4-hydroxyphenyl)-3-phenylpent-2-enoic acid [4-(2-dimethylaminoethoxy)-phenyl]amide]
- uterotropic actions (uteri; 2 or 5 μg daily for 2 days): no uterotropic actions
- effect on the baclofen (GABAB) response ([1]; 10 nM, applied alone): as efficacious as 100 nM 17β-estradiol; also recorded: stronger activator of this rapid 17β-estradiol response than 17β-estradiol
- effect on the baclofen (GABAB) response ([1]; 10 nM, applied alone, listed as compound 8): inhibited the baclofen response
- binding affinity for nuclear (ER)α compared to that of 17β-estradiol (full length (ER)α; fold reduction versus 17β-estradiol): approximately one million-fold reduced binding affinity

Compound: CC/C(=C(\c1ccccc1)c1ccc(/C=C/C(=O)O)cc1)c1ccccc1 [GW-5638]
- effect on the baclofen (GABAB) response ([1]; 1 μM, applied alone): significantly more efficacious than 17β-estradiol
